In patent publication US20230072421A1, “TARGETED RADIOPHARMACEUTICALS FOR THE DIAGNOSIS AND TREATMENT OF PROSTATE CANCER” (Bayer AS, priority 2019, published 2023):

Experiments:
[1] = system: VCaP cells; test: Cell proliferation assay (CellTiter-Glo, 5-day exposure), VCaP; type: cell-based; settings: 4000 cells/well, Th-227 labelled at 375 kBq/nmol, mean of 1 to 6 experiments
How it was run: (§1)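 Prostate cancer cells (VCaP 4000/well; 22Rv1, C4-2, LNCaP 1000/well), Th-227-labelled PSMA ligands, 5-day exposure; viability by CTG at start and end.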

[2] = system: LNCaP human prostate cancer cells; test: LNCaP xenograft efficacy study (T/C tumor area); type: in vivo, SCID mice; settings: Example IV; day 36 after start of therapy; once 1 MBq/kg
Experimental: (§2) SCID mice were randomly assigned to experimental groups, ten animals per group (efficacy) or n=3-5 per time point of biodistribution study. At the initiation of the study, a testosterone pellet was subcutaneously transplanted, the animals were shaved, tattooed and each cage was labeled with the cage number, study number and number of animals per cage.
(§3) LNCaP human prostate cancer cells were cultured as described according to the supplier's protocols. Cells were harvested for transplantation in a subconfluent (70%) state. Animals were injected with 5×10^6 LNCaP cells suspended in 100% Matrigel subcutaneously into the flank of the mice.
Efficacy study: When tumors reached a predetermined size in mice of 35-50 mm^2 animals were randomized into treatment and control groups (n=10 animals/group) and treatment with the defined radioactive dose was started. The i.v. application volume was 100 μl/mice.
Tumor response was assessed by determination of the tumor area (product of the longest diameter and its perpendicular) using a caliper. The animal body weight was monitored as a measure for treatment-related toxicity. Measurement of tumor area and body weight was performed two to three times weekly.
Animals were sacrificed when showing signs of toxicity (>20% body weight loss) or when tumors reached a size of approximately 200 mm^2.
Tumor growth inhibition is presented as T/C ratio (Treatment/Control) calculated with tumor areas when the vehicle control group had to be closed.

[3] = system: 22Rv1 cells; test: Cell proliferation assay (CellTiter-Glo, 5-day exposure), 22Rv1; type: cell-based; settings: 22Rv1, 1000 cells/well, Th-227 labelled at 375 kBq/nmol, mean of 1 to 6 experiments
How it was run: as §1

[4] = system: C4-2 cells; test: Cell proliferation assay (CellTiter-Glo, 5-day exposure), C4-2; type: cell-based; settings: C4-2, 1000 cells/well, Th-227 labelled at 375 kBq/nmol, mean of 1 to 6 experiments
How it was run: as §1

[5] = Biodistribution study in LNCaP tumor-bearing mice (Th227 counted in organs); type: in vivo, SCID mice; settings: 1500 kBq/kg
Experimental: as §2, §3
Biodistribution study: When tumors reached a predetermined size in mice of ˜50 mm^2 animals were randomized into groups (n=3 animals/time point) and the radioactive compound was once applied intravenously. The i.v. application volume was 100 μl/mice.
At the predetermined time point, n=3 animals were sacrificed, the organs removed, weight and measured in a Germanium detector to count the Th227 in the sample.

Structure (SMILES): Cc1cc(C(=O)NCCN(CCCN(CCNC(=O)c2cc(C)n(CC(=O)O)c(=O)c2[O-])CCNC(=O)c2cc(C)n(CC(=O)NCC3CCC(C(=O)NC(Cc4cnc5ccccc5c4)C(=O)NCCCCC(NC(=O)NC(CCC(=O)O)C(=O)O)C(=O)O)CC3)c(=O)c2[O-])CCNC(=O)c2cc(C)n(CC(=O)NCC3CCC(C(=O)NC(Cc4cnc5ccccc5c4)C(=O)NCCCCC(NC(=O)NC(CCC(=O)O)C(=O)O)C(=O)O)CC3)c(=O)c2[O-])c([O-])c(=O)n1CC(=O)O.[227Th+4] (stereo not drawn) [Example 22-C dimer-227Th]
- Proliferation assay on cancer cell lines by TTCs Default Pivot #3 IC50 [kBq/mL] VCap 4000cells 375kBq/nmol (mean) [1]: 3.65 kBq/mL
- T/Carea [2]: 0.67
- Proliferation assay on cancer cell lines by TTCs Default Pivot #3 IC50 [kBq/mL] 22Rv1 1000cells 375kBq/nmol (mean) [3]: 0.89 kBq/mL
- Proliferation assay on cancer cell lines by TTCs Default Pivot #3 IC50 [kBq/mL] C4-2 1000cells 375kBq/nmol (mean) [4]: 2.56 kBq/mL
- Th-227 in Blood ([5]; 0.25 h): 3.35% ID Th-227/g organ
- Th-227 in Liver ([5]; 0.25 h): 1.79% ID Th-227/g organ
- Th-227 in Spleen ([5]; 0.25 h): 13.87% ID Th-227/g organ
- Th-227 in Tumor ([5]; 0.25 h): 4.57% ID Th-227/g organ
- Th-227 in bone ([5]; 0.25 h): 2.50% ID Th-227/g organ
- Th-227 in brain ([5]; 0.25 h): 0.13% ID Th-227/g organ
- Th-227 in kidney ([5]; 0.25 h): 61.44% ID Th-227/g organ
- Th-227 in large intestine ([5]; 0.25 h): 0.87% ID Th-227/g organ
- Th-227 in lung ([5]; 0.25 h): 3.56% ID Th-227/g organ
- Th-227 in muscle ([5]; 0.25 h): 1.27% ID Th-227/g organ
- Th-227 in prostate ([5]; 0.25 h): 5.47% ID Th-227/g organ
- Th-227 in salivary glands ([5]; 0.25 h): 2.63% ID Th-227/g organ
- Th-227 in small intestine ([5]; 0.25 h): 1.64% ID Th-227/g organ
- Th-227 in Blood ([5]; 1 hr): 0.53% ID Th-227/g organ
- Th-227 in Liver ([5]; 1 hr): 0.41% ID Th-227/g organ
- Th-227 in Spleen ([5]; 1 hr): 8.93% ID Th-227/g organ
- Th-227 in Tumor ([5]; 1 hr): 4.49% ID Th-227/g organ
- Th-227 in bone ([5]; 1 hr): 1.12% ID Th-227/g organ
- Th-227 in brain ([5]; 1 hr): 0.01% ID Th-227/g organ
- Th-227 in kidney ([5]; 1 hr): 96.67% ID Th-227/g organ
- Th-227 in large intestine ([5]; 1 hr): 0.23% ID Th-227/g organ
- Th-227 in lung ([5]; 1 hr): 1.30% ID Th-227/g organ
- Th-227 in muscle ([5]; 1 hr): 0.28% ID Th-227/g organ
- Th-227 in prostate ([5]; 1 hr): 1.66% ID Th-227/g organ
- Th-227 in salivary glands ([5]; 1 hr): 0.69% ID Th-227/g organ
- Th-227 in small intestine ([5]; 1 hr): 0.38% ID Th-227/g organ
- Th-227 in Blood ([5]; 4 hr): 0.10% ID Th-227/g organ
- Th-227 in Liver ([5]; 4 hr): 0.60% ID Th-227/g organ
- Th-227 in Spleen ([5]; 4 hr): 1.68% ID Th-227/g organ
- Th-227 in Tumor ([5]; 4 hr): 2.18% ID Th-227/g organ
- Th-227 in bone ([5]; 4 hr): 0.74% ID Th-227/g organ
- Th-227 in brain ([5]; 4 hr): 0.00% ID Th-227/g organ
- Th-227 in kidney ([5]; 4 hr): 45.26% ID Th-227/g organ
- Th-227 in large intestine ([5]; 4 hr): 0.29% ID Th-227/g organ
- Th-227 in lung ([5]; 4 hr): 0.38% ID Th-227/g organ
- Th-227 in muscle ([5]; 4 hr): 0.05% ID Th-227/g organ
- Th-227 in prostate ([5]; 4 hr): 0.20% ID Th-227/g organ
- Th-227 in salivary glands ([5]; 4 hr): 0.36% ID Th-227/g organ
- Th-227 in small intestine ([5]; 4 hr): 0.21% ID Th-227/g organ
- Th-227 in Blood ([5]; 24 h): 0.02% ID Th-227/g organ
- Th-227 in Liver ([5]; 24 h): 078% ID Th-227/g organ
- Th-227 in Spleen ([5]; 24 h): 1.96% ID Th-227/g organ
- Th-227 in Tumor ([5]; 24 h): 2.23% ID Th-227/g organ
- Th-227 in bone ([5]; 24 h): 0.46% ID Th-227/g organ
- Th-227 in brain ([5]; 24 h): 0.00% ID Th-227/g organ
- Th-227 in kidney ([5]; 24 h): 11.35% ID Th-227/g organ
- Th-227 in large intestine ([5]; 24 h): 0.21% ID Th-227/g organ
- Th-227 in lung ([5]; 24 h): 0.25% ID Th-227/g organ
- Th-227 in muscle ([5]; 24 h): 0.00% ID Th-227/g organ
- Th-227 in prostate ([5]; 24 h): 0.02% ID Th-227/g organ
- Th-227 in salivary glands ([5]; 24 h): 0.18% ID Th-227/g organ
- Th-227 in small intestine ([5]; 24 h): 0.10% ID Th-227/g organ
- Th-227 in Blood ([5]; 96 h): 0.00% ID Th-227/g organ
- Th-227 in Liver ([5]; 96 h): 0.31% ID Th-227/g organ
- Th-227 in Spleen ([5]; 96 h): 0.43% ID Th-227/g organ
- Th-227 in Tumor ([5]; 96 h): 0.66% ID Th-227/g organ
- Th-227 in bone ([5]; 96 h): 0.83% ID Th-227/g organ
- Th-227 in brain ([5]; 96 h): 0.00% ID Th-227/g organ
- Th-227 in kidney ([5]; 96 h): 2.18% ID Th-227/g organ
- Th-227 in large intestine ([5]; 96 h): 0.04% ID Th-227/g organ
- Th-227 in lung ([5]; 96 h): 0.16% ID Th-227/g organ
- Th-227 in muscle ([5]; 96 h): 0.00% ID Th-227/g organ
- Th-227 in prostate ([5]; 96 h): 0.00% ID Th-227/g organ
- Th-227 in salivary glands ([5]; 96 h): 0.19% ID Th-227/g organ
- Th-227 in small intestine ([5]; 96 h): 0.04% ID Th-227/g organ
